Reference: ChEMBL document CHEMBL1201862, “PubChem BioAssay data set” (2004)
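Method: 48-hour compound exposure of cells in 96-well plates, five concentrations, linear interpolation of endpoints. GI50 marks 50% less growth.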 Calls of active or inactive are those of the source. No stated cut-off is given here; in the data, active = GI50 up to about 1.1 µM and inactive = higher. *1 amine or outer side, *2 acyl side, *3 side chain or, on linkers, in order; H or OH if unused. Where a SMILES comes first, the peptide text is derived from it. Bridges are numbered along the chain shown (N, C = ends). Roman numbers before positions name the chains, in order. [ ]: non-standard residue; d: D form. Actinocin(9to1) = Cc1c2oc3c(C)ccc(C(=O)[*:1])c3nc-2c(C(=O)[*:2])c(N)c1=O; NMeV = CN[CH](C(=O)O)C(C)C; Sar = CNCC(=O)O

How the values were obtained:
Assay in all cases: DTP human tumour cell line panel, 48 h
RPMI-8226 = system: RPMI-8226
SN12C = system: SN12C
NCI-H23 = system: NCI-H23
NCI-H460 = system: NCI-H460
OVCAR-8 = system: OVCAR-8
U-251 = system: U-251
HOP-62 = system: HOP-62
IGROV-1 = system: IGROV-1
OVCAR-3 = system: OVCAR-3
UACC-62 = system: UACC-62
SF-295 = system: SF-295
A549 = system: A549
OVCAR-4 = system: OVCAR-4
SF-268 = system: SF-268
KM12 = system: KM12
SK-OV-3 = system: SK-OV-3
COLO 205 = system: COLO 205
UACC-257 = system: UACC-257
SK-MEL-2 = system: SK-MEL-2
UO-31 = system: UO-31

Compound | GI50 (RPMI-8226) | GI50 (SN12C) | GI50 (NCI-H23) | GI50 (NCI-H460) | GI50 (OVCAR-8) | GI50 (U-251) | GI50 (HOP-62) | GI50 (IGROV-1) | GI50 (OVCAR-3) | GI50 (UACC-62) | GI50 (SF-295) | GI50 (A549) | GI50 (OVCAR-4) | GI50 (SF-268) | GI50 (KM12) | GI50 (SK-OV-3) | GI50 (COLO 205) | GI50 (UACC-257) | GI50 (SK-MEL-2) | GI50 (UO-31)
C[N+](C)(C)c1ncnc2c1ncn2C1CC(O)C(CO)O1 (stereo not given) | > 100 µM (inactive) | > 100 µM (inactive) | > 100 µM (inactive) | > 100 µM (inactive) | > 100 µM (inactive) | > 100 µM (inactive) | > 100 µM (inactive) | > 100 µM (inactive) | > 100 µM (inactive) | > 100 µM (inactive) | > 100 µM (inactive) | > 100 µM (inactive) | > 100 µM (inactive) | > 100 µM (inactive) | > 100 µM (inactive) | > 100 µM (inactive) | > 100 µM (inactive) | > 100 µM (inactive) | > 100 µM (inactive) | > 100 µM (inactive)
COc1ccc(CC2COc3cc(O)cc(O)c3C2=O)cc1O (stereo not given) | 3.01 µM (inactive) | 8.34 µM (inactive) | 16.6 µM (inactive) | 6.15 µM (inactive) | 11.9 µM (inactive) | 4.89 µM (inactive) | 5.13 µM (inactive) | 4.23 µM (inactive) | 2.3 µM (inactive) | 8.57 µM (inactive) | 4.3 µM (inactive) | 11.9 µM (inactive) | 11.8 µM (inactive) | 14.7 µM (inactive) | 2.81 µM (inactive) | 5.64 µM (inactive) | 20.4 µM (inactive) | > 100 µM (inactive) | 3.81 µM (inactive) | 17 µM (inactive)
CC1OC1C(=O)P(=O)(O)O (stereo not given) | > 100 µM (inactive) | > 100 µM (inactive) | > 100 µM (inactive) | > 100 µM (inactive) | > 100 µM (inactive) | > 100 µM (inactive) | > 100 µM (inactive) | > 100 µM (inactive) | > 100 µM (inactive) | > 100 µM (inactive) | > 100 µM (inactive) | > 100 µM (inactive) | > 100 µM (inactive) | > 100 µM (inactive) | > 100 µM (inactive) | > 100 µM (inactive) | > 100 µM (inactive) | > 100 µM (inactive) | > 100 µM (inactive) | > 100 µM (inactive)
Cc1c2oc3c(C)ccc(C(=O)NC4C(=O)NC(C(C)O)C(=O)N5CCCC5C(=O)N(C)CC(=O)N(C)C(C(C)C)C(=O)OC4C)c3nc-2c(C(=O)NC2C(=O)NC(C(C)O)C(=O)N3CCCC3C(=O)N(C)CC(=O)N(C)C(C(C)C)C(=O)OC2C)c(N)c1=O (stereo not given) (I: TTP[Sar][NMeV] / II: TTP[Sar][NMeV]; ester I:1-I:C, II:1-II:C; linker I:N-II:N via Actinocin(9to1); configuration not given here) | 0.0365 µM (active) | 0.207 µM (active) | 0.274 µM (active) | 0.0818 µM (active) | 0.195 µM (active) | 0.0904 µM (active) | 0.498 µM (active) | 0.135 µM (active) | 0.28 µM (active) | 0.103 µM (active) | 0.453 µM (active) | 0.783 µM (active) | 0.931 µM (active) | 0.198 µM (active) | 0.185 µM (active) | 2.21 µM (inactive) | 0.0528 µM (active) | 0.244 µM (active) | 0.133 µM (active) | 2 µM (inactive)
COc1cccc(/C=C2/S/C(=N/Nc3nc(C)c(C(C)=O)s3)NC2=O)c1O | 27 µM (inactive) | 31.7 µM (inactive) | 35.3 µM (inactive) | 29.6 µM (inactive) | 34.3 µM (inactive) | 18.5 µM (inactive) | 51.6 µM (inactive) | 35.9 µM (inactive) | 22.5 µM (inactive) | 20.1 µM (inactive) | 52.8 µM (inactive) | 37.9 µM (inactive) | 30.3 µM (inactive) | 40.6 µM (inactive) | 36.2 µM (inactive) | 66.8 µM (inactive) | 27.5 µM (inactive) | 25.4 µM (inactive) | 21.2 µM (inactive) | 21.5 µM (inactive)
Cc1ccc(S(=O)(=O)OCCOCCOCCOCCOCCOS(=O)(=O)c2ccc(C)cc2)cc1 | 33.5 µM (inactive) | 39.7 µM (inactive) | 21.3 µM (inactive) | 36.7 µM (inactive) | 22.6 µM (inactive) | 58.3 µM (inactive) | 30.1 µM (inactive) | 79.8 µM (inactive) | 21.7 µM (inactive) | 61.4 µM (inactive) | 50.7 µM (inactive) | 69.8 µM (inactive) | 51.3 µM (inactive) | > 100 µM (inactive) | 55.7 µM (inactive) | > 100 µM (inactive) | 17.2 µM (inactive) | 25 µM (inactive) | 41.5 µM (inactive) | 28.8 µM (inactive)
COC1OC2COC1(OC)C1OC(C)(C)OC21 (stereo not given) | > 100 µM (inactive) | > 100 µM (inactive) | > 100 µM (inactive) | > 100 µM (inactive) | > 100 µM (inactive) | > 100 µM (inactive) | > 100 µM (inactive) | > 100 µM (inactive) | > 100 µM (inactive) | > 100 µM (inactive) | > 100 µM (inactive) | > 100 µM (inactive) | > 100 µM (inactive) | > 100 µM (inactive) | > 100 µM (inactive) | > 100 µM (inactive) | > 100 µM (inactive) | > 100 µM (inactive) | > 100 µM (inactive) | > 100 µM (inactive)
CO/C(=N\N=Cc1ccccc1)c1ccncc1 | > 100 µM (inactive) | > 100 µM (inactive) | > 100 µM (inactive) | > 100 µM (inactive) | > 100 µM (inactive) | > 100 µM (inactive) | > 100 µM (inactive) | > 100 µM (inactive) | > 100 µM (inactive) | > 100 µM (inactive) | > 100 µM (inactive) | > 100 µM (inactive) | > 100 µM (inactive) | > 100 µM (inactive) | > 100 µM (inactive) | > 100 µM (inactive) | > 100 µM (inactive) | > 100 µM (inactive) | > 100 µM (inactive) | 47.2 µM (inactive)
COc1ccc2nc3cc(Cl)ccc3c(NCCCCCC(=O)NC(COc3ccc4ccc5cccnc5c4n3)COc3ccc4ccc5cccnc5c4n3)c2c1 | 5.58 µM (inactive) | 17.8 µM (inactive) | 21.4 µM (inactive) | 2.85 µM (inactive) | 41.2 µM (inactive) | 13.8 µM (inactive) | > 100 µM (inactive) | 16.3 µM (inactive) | 28.5 µM (inactive) | 21.7 µM (inactive) | 29.8 µM (inactive) | 15.5 µM (inactive) | 30 µM (inactive) | 17.9 µM (inactive) | 27.9 µM (inactive) | 36.9 µM (inactive) | 18.3 µM (inactive) | 21.7 µM (inactive) | 25.3 µM (inactive) | 2.79 µM (inactive)
N=C(N)NCC(N)C(=O)O (stereo not given) | > 100 µM (inactive) | > 100 µM (inactive) | > 100 µM (inactive) | > 100 µM (inactive) | > 100 µM (inactive) | > 100 µM (inactive) | > 100 µM (inactive) | > 100 µM (inactive) | > 100 µM (inactive) | > 100 µM (inactive) | > 100 µM (inactive) | > 100 µM (inactive) | > 100 µM (inactive) | > 100 µM (inactive) | > 100 µM (inactive) | > 100 µM (inactive) | > 100 µM (inactive) | > 100 µM (inactive) | > 100 µM (inactive) | > 100 µM (inactive)
COc1ccc2c(c1)[n+]([O-])c(C(C)=O)c(C)[n+]2[O-] | > 100 µM (inactive) | > 100 µM (inactive) | > 100 µM (inactive) | > 100 µM (inactive) | > 100 µM (inactive) | > 100 µM (inactive) | > 100 µM (inactive) | > 100 µM (inactive) | > 100 µM (inactive) | > 100 µM (inactive) | > 100 µM (inactive) | > 100 µM (inactive) | > 100 µM (inactive) | > 100 µM (inactive) | > 100 µM (inactive) | > 100 µM (inactive) | > 100 µM (inactive) | > 100 µM (inactive) | > 100 µM (inactive) | > 100 µM (inactive)
O=C(CCCN1CCC(C(O)c2ccc(F)cc2)CC1)c1ccc(F)cc1 (stereo not given) | 66.5 µM (inactive) | 71.9 µM (inactive) | 66.5 µM (inactive) | 57.8 µM (inactive) | 64.7 µM (inactive) | 55.5 µM (inactive) | 62.8 µM (inactive) | 61.9 µM (inactive) | 57 µM (inactive) | 57 µM (inactive) | 63.5 µM (inactive) | 64 µM (inactive) | 61 µM (inactive) | 59.6 µM (inactive) | 56.6 µM (inactive) | 69.8 µM (inactive) | 55.7 µM (inactive) | 60.7 µM (inactive) | 57.4 µM (inactive) | 23.1 µM (inactive)
Clc1ccc(CCn2ccc3ccccc32)c(Cl)c1 | > 100 µM (inactive) | > 100 µM (inactive) | > 100 µM (inactive) | > 100 µM (inactive) | > 100 µM (inactive) | > 100 µM (inactive) | > 100 µM (inactive) | > 100 µM (inactive) | > 100 µM (inactive) | > 100 µM (inactive) | > 100 µM (inactive) | > 100 µM (inactive) | > 100 µM (inactive) | > 100 µM (inactive) | > 100 µM (inactive) | > 100 µM (inactive) | > 100 µM (inactive) | > 100 µM (inactive) | > 100 µM (inactive) | > 100 µM (inactive)
